Test results reported in ChEMBL document CHEMBL4619721, “Design, synthesis & biological evaluation of ferulic acid-based small molecule inhibitors against tumor-associated carbonic anhydrase IX” (Bioorg Med Chem, 2020).
Blank lines part the entries; values can stand above or below the compound they belong to. The source made the active and inactive calls. The calls are words filed in the database; no cut-off is given here.

Assays:
Carbonic anhydrase 9 [1] = biological target: T1, Carbonic anhydrase 9 (Homo sapiens, UniProt Q16790);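 further: esterase activity of the enzyme on p-nitrophenyl acetate, followed by UV-Vis spectrophotometry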
Description: Inhibition of human carbonic anhydrase 9 using p-nitrophenyl acetate as substrate by UV-VIS spectrophotometric analysis

Carbonic anhydrase 2 = Carbonic anhydrase 2 (Homo sapiens, UniProt P00918); experiment: Inhibition of human carbonic anhydrase 2 using p-nitrophenyl acetate as substrate by UV-VIS spectrophotometric analysis
[2] = biological target: Carbonic anhydrase 5A, mitochondrial (Homo sapiens, UniProt P35218); experiment: Inhibition of human carbonic anhydrase 5A using p-nitrophenyl acetate as substrate by UV-VIS spectrophotometric analysis
Homo sapiens [3] = species: Homo sapiens; experiment: Selectivity index, ratio of IC50 for human carbonic anhydrase 2 using p-nitrophenyl acetate as substrate to IC50 for human carbonic anhydrase 9 using p-nitrophenyl acetate as substrate
Homo sapiens [4] = species: Homo sapiens; experiment: Selectivity index, ratio of IC50 for human carbonic anhydrase 2 using p-nitrophenyl acetate as substrate to IC50 for human carbonic anhydrase 5A using p-nitrophenyl acetate as substrate by
Carbonic anhydrase 9 [5] = biological target: T1, Carbonic anhydrase 9; experiment: Binding affinity to human carbonic anhydrase 9 assessed as dissociation constant by isothermal titration calorimetric assay
Albumin = Albumin (Homo sapiens, UniProt P02768); experiment: Binding affinity to human serum albumin assessed as decrease in emission intensity by fluorescence emission spectrum based Stern-Volmer method; type: ADME; conditions: isolated protein
HT-29 [6] = experiment: Cytotoxicity against human HT-29 cells assessed as reduction in cell viability after 48 hrs by MTT assay; type: functional, cell-based; conditions: HT-29, 48 h
HepG2 [7] = experiment: Cytotoxicity against human HepG2 cells assessed as reduction in cell viability after 48 hrs by MTT assay; type: functional, cell-based; conditions: HepG2, 48 h
HEK293 = experiment: Cytotoxicity against HEK293 cells assessed as reduction in cell viability measured after 48 or 72 hrs by MTT assay; type: cell-based; conditions: human, hek293, 72 h
HT-29 [8] = experiment: Down regulation of carbonic anhydrase 9 protein expression in human HT-29 cells by immunoblotting analysis; type: functional, cell-based
HepG2 [9] = experiment: Down regulation of carbonic anhydrase 9 protein expression in human HepG2 cells by immunoblotting analysis; type: functional, cell-based
HT-29 [10] = experiment: Down regulation of HIF1-alpha protein expression in human HT-29 cells by immunoblotting analysis; type: functional, cell-based
HepG2 [11] = experiment: Down regulation of HIF1-alpha protein expression in human HepG2 cells by immunoblotting analysis; type: functional, cell-based
HT-29 [12] = experiment: Antimigratory activity against human HT-29 cells assessed as inhibition of cell migration at IC50 concentration after 24 hrs by crystal violet staining microscopy based transwell migration assay; type: functional
HepG2 [13] = experiment: Antimigratory activity against human HepG2 cells assessed as inhibition of cell migration at IC50 concentration after 24 hrs by crystal violet staining microscopy based transwell migration assay; type: functional
HT-29 [14] = experiment: Inhibition of colony formation in human HT-29 cells at IC50 concentration after 10 days by crystal violet staining based colony formation assay; type: functional, cell-based
HepG2 [15] = experiment: Inhibition of colony formation in human HepG2 cells at IC50 concentration after 10 days by crystal violet staining based colony formation assay; type: functional, cell-based
HT-29 [16] = experiment: Effect on ephithelial-mesenchymal transition in human HT-29 cells assessed as decrease in snail expression at IC50 concentration after 48 hrs by immunoblotting analysis; type: functional, cell-based
HepG2 [17] = experiment: Effect on ephithelial-mesenchymal transition in human HepG2 cells assessed as decrease in snail expression at IC50 concentration after 48 hrs by immunoblotting analysis; type: functional, cell-based
HT-29 [18] = experiment: Effect on ephithelial-mesenchymal transition in human HT-29 cells assessed as decrease in slug expression at IC50 concentration after 48 hrs by immunoblotting analysis; type: functional, cell-based
HepG2 [19] = experiment: Effect on ephithelial-mesenchymal transition in human HepG2 cells assessed as decrease in slug expression at IC50 concentration after 48 hrs by immunoblotting analysis; type: functional, cell-based
HT-29 [20] = experiment: Effect on ephithelial-mesenchymal transition in human HT-29 cells assessed as decrease in Zeb1 expression at IC50 concentration after 48 hrs by immunoblotting analysis; type: functional, cell-based
HepG2 [21] = experiment: Effect on ephithelial-mesenchymal transition in human HepG2 cells assessed as decrease in Zeb1 expression at IC50 concentration after 48 hrs by immunoblotting analysis; type: functional, cell-based
HT-29 [22] = experiment: Effect on ephithelial-mesenchymal transition in human HT-29 cells assessed as increase in E-cadherin expression at IC50 concentration after 48 hrs by immunoblotting analysis; type: functional, cell-based
HepG2 [23] = experiment: Effect on ephithelial-mesenchymal transition in human HepG2 cells assessed as increase in E-cadherin expression at IC50 concentration after 48 hrs by immunoblotting analysis; type: functional, cell-based
HT-29 [24] = experiment: Induction of apoptosis in human HT-29 cells assessed as increase in cleaved PARP expression at IC50 concentration after 48 hrs by immunoblotting analysis; type: functional, cell-based
HepG2 [25] = experiment: Induction of apoptosis in human HepG2 cells assessed as increase in cleaved PARP expression at IC50 concentration after 48 hrs by immunoblotting analysis; type: functional, cell-based
HT-29 [26] = experiment: Induction of apoptosis in human HT-29 cells assessed as early apoptotic cells at IC50 concentration after 24 hrs by Annexin V-FITC/propidium iodide staining based flow cytometry (reference value: 0.73%); type: functional
HT-29 [27] = experiment: Induction of apoptosis in human HT-29 cells assessed as late apoptotic cells at IC50 concentration after 24 hrs by Annexin V-FITC/propidium iodide staining based flow cytometry (reference value: 0.089%); type: functional
HT-29 [28] = experiment: Induction of apoptosis in human HT-29 cells assessed as necrotic cells at IC50 concentration after 24 hrs by Annexin V-FITC/propidium iodide staining based flow cytometry (reference value: 0.68%); type: functional
HepG2 [29] = experiment: Induction of apoptosis in human HepG2 cells assessed as early apoptotic cells at IC50 concentration after 24 hrs by Annexin V-FITC/propidium iodide staining based flow cytometry (reference value: 0%); type: functional
HepG2 [30] = experiment: Induction of apoptosis in human HepG2 cells assessed as late apoptotic cells at IC50 concentration after 24 hrs by Annexin V-FITC/propidium iodide staining-based flow cytometric analysis (reference value: 0%); type: functional
HepG2 [31] = experiment: Induction of apoptosis in human HepG2 cells assessed as necrotic cells at IC50 concentration after 24 hrs by Annexin V-FITC/propidium iodide staining-based flow cytometric analysis (reference value: 1.14%); type: functional
HT-29 [32] = experiment: Induction of apoptosis in human HT-29 cells assessed as viable cells at IC50 concentration after 24 hrs by Annexin V-FITC/propidium iodide staining based flow cytometry (reference value: 98.5%); type: functional
HepG2 [33] = experiment: Induction of apoptosis in human HepG2 cells assessed as viable cells at IC50 concentration after 24 hrs by Annexin V-FITC/propidium iodide staining based flow cytometry (reference value: 98.9%); type: functional
HT-29 [34] = experiment: Induction of apoptosis in human HT-29 cells at 8.44 uM after 24 hrs by Annexin V-FITC/propidium iodide staining based flow cytometry relative to control; type: functional
HepG2 [35] = experiment: Induction of apoptosis in human HepG2 cells at 11.22 uM after 24 hrs by Annexin V-FITC/propidium iodide staining based flow cytometry relative to control; type: functional
HT-29 [36] = experiment: Down regulation of carbonic anhydrase 9 mRNA expression in human HT-29 cells by RT-PCR analysis; type: functional, cell-based
HepG2 [37] = experiment: Down regulation of carbonic anhydrase 9 mRNA expression in human HepG2 cells by RT-PCR analysis; type: functional, cell-based

Chain of Carbonic anhydrase 5A, mitochondrial (P35218 whole entry): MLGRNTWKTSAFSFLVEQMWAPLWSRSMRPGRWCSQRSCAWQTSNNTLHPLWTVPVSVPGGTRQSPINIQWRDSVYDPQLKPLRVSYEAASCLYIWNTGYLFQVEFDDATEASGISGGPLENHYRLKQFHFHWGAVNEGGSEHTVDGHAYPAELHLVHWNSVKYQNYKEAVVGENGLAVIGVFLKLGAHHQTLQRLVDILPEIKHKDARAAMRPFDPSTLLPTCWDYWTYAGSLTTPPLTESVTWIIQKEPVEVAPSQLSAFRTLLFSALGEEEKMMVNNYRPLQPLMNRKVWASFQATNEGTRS
Chain of Albumin (P02768 whole entry): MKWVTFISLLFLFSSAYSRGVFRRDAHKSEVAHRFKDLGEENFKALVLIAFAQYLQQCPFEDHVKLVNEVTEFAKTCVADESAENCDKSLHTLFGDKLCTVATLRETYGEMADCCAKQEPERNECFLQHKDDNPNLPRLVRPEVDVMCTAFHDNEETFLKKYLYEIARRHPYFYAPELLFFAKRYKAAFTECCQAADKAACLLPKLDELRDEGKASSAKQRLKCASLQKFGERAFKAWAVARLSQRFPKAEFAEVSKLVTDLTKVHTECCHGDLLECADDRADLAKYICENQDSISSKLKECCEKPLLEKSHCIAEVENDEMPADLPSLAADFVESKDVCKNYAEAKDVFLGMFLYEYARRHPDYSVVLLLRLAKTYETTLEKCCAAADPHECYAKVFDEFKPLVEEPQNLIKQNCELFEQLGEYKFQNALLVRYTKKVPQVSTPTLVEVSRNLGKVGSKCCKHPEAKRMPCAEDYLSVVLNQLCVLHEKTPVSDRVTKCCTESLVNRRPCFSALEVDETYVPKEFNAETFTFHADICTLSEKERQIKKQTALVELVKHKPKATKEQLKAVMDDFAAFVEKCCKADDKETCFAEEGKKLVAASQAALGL

Structure (SMILES): COc1cc(/C=C/C(=O)O)ccc1OCc1cn(-c2cccc(F)c2)nn1
IC50 (Carbonic anhydrase 9 [1]): 12.2 µM

Structure (SMILES): COc1cc(/C=C/C(=O)O)ccc1O [FERULATE]
IC50 (Carbonic anhydrase 2): 6.44 µM
IC50 (Carbonic anhydrase 9 [1]): 9.39 µM
IC50 [2]: 8.86 µM
Ratio IC50 (Homo sapiens [3]): 0.7
Ratio IC50 (Homo sapiens [4]): 0.7

Structure (SMILES): COc1cc(/C=C/C(=O)O)ccc1OCc1cn(-c2ccc([N+](=O)[O-])cc2)nn1
IC50 (Carbonic anhydrase 9 [1]): 1.45 µM

Structure (SMILES): COc1cc(/C=C/C(=O)O)ccc1OCc1cn(-c2ccccc2C)nn1
IC50 (Carbonic anhydrase 9 [1]): 3.64 µM

Structure (SMILES): COc1cc(/C=C/C(=O)O)ccc1OCc1cn(-c2ccccc2)nn1
IC50 (Carbonic anhydrase 2): > 20 µM
IC50 (Carbonic anhydrase 9 [1]): > 20 µM
IC50 [2]: > 20 µM

Structure (SMILES): COc1cc(/C=C/C(=O)O)ccc1OCc1cn(-c2cccc(Cl)c2)nn1
IC50 (Carbonic anhydrase 9 [1]): 1.37 µM

Structure (SMILES): COc1cc(/C=C/C(=O)O)ccc1OCc1cn(-c2ccccc2F)nn1
IC50 (Carbonic anhydrase 9 [1]): 8.94 µM

Structure (SMILES): COc1cc(/C=C/C(=O)O)ccc1OCc1cn(-c2ccccc2OC)nn1
IC50 (Carbonic anhydrase 9 [1]): 2.6 µM

Structure (SMILES): COc1cc(/C=C/C(=O)O)ccc1OCc1cn(-c2cccc(C)c2)nn1
IC50 (Carbonic anhydrase 9 [1]): 5.24 µM

Structure (SMILES): COc1cc(/C=C/C(=O)O)ccc1OCc1cn(-c2ccccc2Cl)nn1
IC50 (Carbonic anhydrase 9 [1]): 14.5 µM

Structure (SMILES): COc1cc(/C=C/C(=O)O)ccc1OCc1cn(-c2cccc([N+](=O)[O-])c2)nn1
IC50 (Carbonic anhydrase 2): 1.99 µM
IC50 (Carbonic anhydrase 9 [1]): 0.024 µM
IC50 [2]: 1.1 µM
Kd (Carbonic anhydrase 9 [5]): 29 µM
Ka (Albumin): 5.46 ×10⁴ /M
IC50 (HT-29 [6]): 8.44 µM
IC50 (HepG2 [7]): 11.2 µM
Activity (HEK293): Non-Toxic
Activity (HT-29 [8]): Active
Activity (HepG2 [9]): Active
Activity (HT-29 [10]): Active
Activity (HepG2 [11]): Active
Activity (HT-29 [12]): Active
Activity (HepG2 [13]): Active
inhibition (HT-29 [14]): Active
inhibition (HepG2 [15]): Active
Activity (HT-29 [16]): Active
Activity (HepG2 [17]): Active
Activity (HT-29 [18]): Active
Activity (HepG2 [19]): Active
Activity (HT-29 [20]): Active
Activity (HepG2 [21]): Active
Activity (HT-29 [22]): Active
Activity (HepG2 [23]): Active
Activity (HT-29 [24]): Active
Activity (HepG2 [25]): Active
Activity (HT-29 [26]): 2.29%
Activity (HT-29 [27]): 10.5%
Activity (HT-29 [28]): 11.6%
Activity (HepG2 [29]): 2.17%
Activity (HepG2 [30]): 6.6%
Activity (HepG2 [31]): 10.3%
Activity (HT-29 [32]): 75.6%
Activity (HepG2 [33]): 80.9%
Activity (HT-29 [34]): 24.44%
Activity (HepG2 [35]): 19.22%
Activity (HT-29 [36]): Active
Activity (HepG2 [37]): Active

Structure (SMILES): COc1cc(/C=C/C(=O)O)ccc1OCc1cn(-c2ccccc2[N+](=O)[O-])nn1
IC50 (Carbonic anhydrase 9 [1]): 2.44 µM

Now from value to compound:

IC50 (Carbonic anhydrase 9 [1]): 1.96 µM
Structure (SMILES): COc1cccc(-n2cc(COc3ccc(/C=C/C(=O)O)cc3OC)nn2)c1

IC50 (Carbonic anhydrase 9 [1]): 0.92 µM
Structure (SMILES): COc1cc(/C=C/C(=O)O)ccc1OCc1cn(-c2ccc(C(=O)O)cc2)nn1

IC50 (Carbonic anhydrase 9 [1]): 0.771 µM
Structure (SMILES): COc1cc(/C=C/C(=O)O)ccc1OCc1cn(-c2ccc(Cl)cc2)nn1

IC50 (Carbonic anhydrase 9 [1]): 7.64 µM
Structure (SMILES): COc1cc(/C=C/C(=O)O)ccc1OCc1cn(-c2ccc(F)cc2)nn1

IC50 (Carbonic anhydrase 9 [1]): 4.76 µM
Structure (SMILES): COc1ccc(-n2cc(COc3ccc(/C=C/C(=O)O)cc3OC)nn2)cc1

IC50 (Carbonic anhydrase 9 [1]): 4.22 µM
Structure (SMILES): COc1cc(/C=C/C(=O)O)ccc1OCc1cn(-c2ccc(C)cc2)nn1
